Data reported in patent publication US6967207B2, “Preventive or therapeutic agents for gastric or esophageal regurgitation” (Mitsubishi Pharma Corporation, priority 2000, dated 2005).

How the values were obtained:
fundic pouch dog [1] = test: Suppressing action on gastric acid secretion (tetragastrin stimulation) in fundic pouch dog; assay type: in vivo; details: for Amount of gastric juice secretion: tetragastrin stimulation 2 μg/kg/hr, control 40.1 ± 3.9, mean ± standard error for 6 samples
Protocol: (§1) An effect on gastric acid secretion by stimulation under awakening was studied by using (fundic pouch dog). For preparation of the fundic pouch dog, a mongrel dog after starvation overnight was subjected to sterile ventrotomy under anesthesia using sodium pentobarbital (30 mg/kg, i.v.), and a fistula was attached to a part of the corpus ventriculi. After recovery period for two weeks, the dog was fixed to the Pavlov's stand, and gastric juice was collected every 15 minutes for 4 hours under histamine stimulation (0.2 mg/kg/hr). A volume of each collected gastric juice was recorded, and the juice was titrated with 0.01N NaOH using pH automatic measuring apparatus (Radiometer Copenhagen). The test compound, encapsulated in a gelatin capsule, was orally administered one hour before histamine administration.
Experiment was conducted in a similar manner as Example 1 except that the stimulating agent was replaced with tetragastrin(2 μg/kg/hr).

fundic pouch dog [2] = test: Suppressing action on gastric acid secretion (histamine stimulation) in fundic pouch dog; assay type: in vivo; details: for Amount of gastric juice secretion: histamine stimulation 0.2 mg/kg/hr, control 116.1 ± 12.3, mean ± standard error for 6 samples
Protocol: as §1

Question: Which results are given for `O=C(N[C@H]1CN2CCC1CC2)c1cnc2ccsc2c1O` [Test compound, R-(−)-N-(1-azabicyclo[2.2.2]oct-3-yl)-7-hydroxythieno[3,2-b]-pyridine-6-carboxamide]?
Answer: Amount of gastric juice secretion (fundic pouch dog [1]; 10 μg/kg oral): 26.7 ± 7.8 mEq/4 hr; Amount of gastric juice secretion (fundic pouch dog [1]; 30 μg/kg oral): 12.9 ± 5.3 mEq/4 hr; secretion of gastric juice by tetragastrin stimulation (result in words) (fundic pouch dog [1]; tetragastrin stimulation, fundic pouch dog): suppressed; Amount of gastric juice secretion (fundic pouch dog [2]; 3 μg/kg oral (gelatin capsule) one hour before histamine): 76.8 ± 7.4 mEq/4 hr; Amount of gastric juice secretion (fundic pouch dog [2]; 10 μg/kg oral (gelatin capsule) one hour before histamine): 61.9 ± 5.5 mEq/4 hr; secretion of gastric juice by histamine stimulation (result in words) (fundic pouch dog [2]; histamine stimulation, fundic pouch dog): suppressed
